# Reference: PubChem BioAssay AID2060616 (Molecular Pharmacology Branch, DTP, NCI, 2025)
# Tested on: 377384-186-R-J1-PDC complex spheroid viability
# Experiment: Anticancer human tumor 377384-186-R-J1-PDC patient-derived pancreatic carcinoma cell line growth inhibition [CLK]
# Conditions: for IC50: curve of first compound; for viability, T/C: stronger effect = lower value
# Outline: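 Multi-cell-type spheroids combined patient-derived tumor cells with HUVEC endothelial cells and human mesenchymal stem cells. Paired agents were dosed in half-log steps down from about clinical Cmax, or from 10 microM where Cmax was unknown.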
# [1] = second compound 0.0316 µM, first compound 0.0316 µM
# [2] = second compound 0.0316 µM, first compound 0.1 µM
# [3] = second compound 0.0316 µM, first compound 0.316 µM
# [4] = second compound 0.0316 µM, first compound 1 µM
# [5] = second compound 0.0316 µM, first compound 3.16 µM
# [6] = second compound 0.0316 µM, first compound 10 µM
# [7] = second compound 0.1 µM, first compound 0.0316 µM
# [8] = second compound 0.1 µM, first compound 0.1 µM
# [9] = second compound 0.1 µM, first compound 0.316 µM
# [10] = second compound 0.1 µM, first compound 1 µM
# [11] = second compound 0.1 µM, first compound 3.16 µM
# [12] = second compound 0.1 µM, first compound 10 µM
# [13] = second compound 0.316 µM, first compound 0.0316 µM
# [14] = second compound 0.316 µM, first compound 0.1 µM
# [15] = second compound 0.316 µM, first compound 0.316 µM
# [16] = second compound 0.316 µM, first compound 1 µM
# [17] = second compound 0.316 µM, first compound 3.16 µM
# [18] = second compound 0.316 µM, first compound 10 µM
# [19] = second compound 1 µM, first compound 0.0316 µM
# [20] = second compound 1 µM, first compound 0.1 µM
# [21] = second compound 1 µM, first compound 0.316 µM
# [22] = second compound 1 µM, first compound 1 µM
# [23] = second compound 1 µM, first compound 3.16 µM
# [24] = second compound 1 µM, first compound 10 µM
# [25] = second compound 3.16 µM, first compound 0.0316 µM
# [26] = second compound 3.16 µM, first compound 0.1 µM
# [27] = second compound 3.16 µM, first compound 0.316 µM
# [28] = second compound 3.16 µM, first compound 1 µM
# [29] = second compound 3.16 µM, first compound 3.16 µM
# [30] = second compound 3.16 µM, first compound 10 µM
# [31] = second compound 10 µM, first compound 0.0316 µM
# [32] = second compound 10 µM, first compound 0.1 µM
# [33] = second compound 10 µM, first compound 0.316 µM
# [34] = second compound 10 µM, first compound 1 µM
# [35] = second compound 10 µM, first compound 3.16 µM
# [36] = second compound 10 µM, first compound 10 µM
# 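Note: spheroids exposed to agents for 7 days before reading.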
# 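Throughout, for viability, T/C: luminescence signal used as a stand-in for viable cells.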
compound,measurement,setting,value
Nc1ccn(C2OC(CO)C(O)C2(F)F)c(=O)n1 (stereo unspecified) + CN1CCN(c2cc(C(=O)Nc3cc4cc(-c5cnn(C)c5)ccc4cn3)ccn2)CC1,IC50,second compound 0.0316 µM,< 31.6 nM
same,IC50,second compound 0.1 µM,< 31.6 nM
same,IC50,second compound 0.316 µM,< 31.6 nM
same,IC50,second compound 1 µM,< 31.6 nM
same,IC50,second compound 3.16 µM,< 31.6 nM
same,IC50,second compound 10 µM,< 31.6 nM
same,"viability, T/C",[1],7.87%
same,"viability, T/C",[2],4.22%
same,"viability, T/C",[3],5.68%
same,"viability, T/C",[4],2.98%
same,"viability, T/C",[5],2.97%
same,"viability, T/C",[6],2.28%
same,"viability, T/C",[7],9.1%
same,"viability, T/C",[8],4.08%
same,"viability, T/C",[9],3.35%
same,"viability, T/C",[10],3.48%
same,"viability, T/C",[11],2.39%
same,"viability, T/C",[12],1.85%
same,"viability, T/C",[13],11.6%
same,"viability, T/C",[14],6.64%
same,"viability, T/C",[15],4.53%
same,"viability, T/C",[16],3.35%
same,"viability, T/C",[17],2.23%
same,"viability, T/C",[18],2.18%
same,"viability, T/C",[19],1.03%
same,"viability, T/C",[20],0.46%
same,"viability, T/C",[21],1.22%
same,"viability, T/C",[22],0.37%
same,"viability, T/C",[23],0.88%
same,"viability, T/C",[24],1.48%
same,"viability, T/C",[25],0.37%
same,"viability, T/C",[26],0.29%
same,"viability, T/C",[27],0.92%
same,"viability, T/C",[28],0.2%
same,"viability, T/C",[29],0.33%
same,"viability, T/C",[30],0.29%
same,"viability, T/C",[31],0.21%
same,"viability, T/C",[32],0.61%
same,"viability, T/C",[33],0.42%
same,"viability, T/C",[34],0.38%
same,"viability, T/C",[35],0.23%
same,"viability, T/C",[36],0.54%
O=C(c1cc(Cc2n[nH]c(=O)c3ccccc23)ccc1F)N1CCN(C(=O)C2CC2)CC1 + CN1CCN(c2cc(C(=O)Nc3cc4cc(-c5cnn(C)c5)ccc4cn3)ccn2)CC1,IC50,second compound 0.0316 µM,> 10000 nM
same,IC50,second compound 0.1 µM,6680 nM
same,IC50,second compound 0.316 µM,< 31.6 nM
same,IC50,second compound 1 µM,< 31.6 nM
same,IC50,second compound 3.16 µM,< 31.6 nM
same,IC50,second compound 10 µM,< 31.6 nM
same,"viability, T/C",[1],87.8%
same,"viability, T/C",[2],85.3%
same,"viability, T/C",[3],81%
same,"viability, T/C",[4],77.7%
same,"viability, T/C",[5],65.1%
same,"viability, T/C",[6],52.7%
same,"viability, T/C",[7],83.9%
same,"viability, T/C",[8],89.8%
same,"viability, T/C",[9],77%
same,"viability, T/C",[10],78.5%
same,"viability, T/C",[11],63.3%
same,"viability, T/C",[12],42.6%
same,"viability, T/C",[13],24%
same,"viability, T/C",[14],32.5%
same,"viability, T/C",[15],27.3%
same,"viability, T/C",[16],27.1%
same,"viability, T/C",[17],24.1%
same,"viability, T/C",[18],22.7%
same,"viability, T/C",[19],1.23%
same,"viability, T/C",[20],1.25%
same,"viability, T/C",[21],1.1%
same,"viability, T/C",[22],1.53%
same,"viability, T/C",[23],1.47%
same,"viability, T/C",[24],0.93%
same,"viability, T/C",[25],0.4%
same,"viability, T/C",[26],0.39%
same,"viability, T/C",[27],0.42%
same,"viability, T/C",[28],0.45%
same,"viability, T/C",[29],0.37%
same,"viability, T/C",[30],1.27%
same,"viability, T/C",[31],0.42%
same,"viability, T/C",[32],1.09%
same,"viability, T/C",[33],1.28%
same,"viability, T/C",[34],0.44%
same,"viability, T/C",[35],0.49%
same,"viability, T/C",[36],0.38%
O=c1[nH]cc(F)c(=O)[nH]1 + CN1CCN(c2cc(C(=O)Nc3cc4cc(-c5cnn(C)c5)ccc4cn3)ccn2)CC1,IC50,second compound 0.0316 µM,7600 nM
same,IC50,second compound 0.1 µM,> 10000 nM
same,IC50,second compound 0.316 µM,< 31.6 nM
same,IC50,second compound 1 µM,< 31.6 nM
same,IC50,second compound 3.16 µM,< 31.6 nM
same,IC50,second compound 10 µM,< 31.6 nM
same,"viability, T/C",[1],121%
same,"viability, T/C",[2],122%
same,"viability, T/C",[3],91.6%
same,"viability, T/C",[4],84.5%
same,"viability, T/C",[5],60.1%
same,"viability, T/C",[6],46.5%
same,"viability, T/C",[7],104%
same,"viability, T/C",[8],107%
same,"viability, T/C",[9],92.2%
same,"viability, T/C",[10],94.4%
same,"viability, T/C",[11],65.4%
same,"viability, T/C",[12],56.1%
same,"viability, T/C",[13],25.5%
same,"viability, T/C",[14],28.4%
same,"viability, T/C",[15],22.2%
same,"viability, T/C",[16],29.3%
same,"viability, T/C",[17],28.3%
same,"viability, T/C",[18],21.5%
same,"viability, T/C",[19],1.11%
same,"viability, T/C",[20],0.76%
same,"viability, T/C",[21],1.57%
same,"viability, T/C",[22],1.15%
same,"viability, T/C",[23],0.86%
same,"viability, T/C",[24],1.02%
same,"viability, T/C",[25],0.29%
same,"viability, T/C",[26],0.87%
same,"viability, T/C",[27],1.83%
same,"viability, T/C",[28],0.32%
same,"viability, T/C",[29],0.25%
same,"viability, T/C",[30],0.31%
same,"viability, T/C",[31],0.28%
same,"viability, T/C",[32],0.51%
same,"viability, T/C",[33],0.49%
same,"viability, T/C",[34],0.42%
same,"viability, T/C",[35],0.53%
same,"viability, T/C",[36],1.86%
